Measurements reported in ChEMBL document CHEMBL1201862, “PubChem BioAssay data set” (2004).
The source made the active and inactive calls.

Key:
[1] = target: T1, Corticotropin-releasing factor receptor 2/Corticotropin-releasing factor-binding protein (Homo sapiens, UniProt P24387+Q13324); assay: Dose Response confirmation of uHTS hits for small molecule antagonists of the CRF-binding protein and CRF-R2 receptor complex.; assay type: functional; conditions: read-out: IC50_Mean
T1 sequence (Q13324 whole entry): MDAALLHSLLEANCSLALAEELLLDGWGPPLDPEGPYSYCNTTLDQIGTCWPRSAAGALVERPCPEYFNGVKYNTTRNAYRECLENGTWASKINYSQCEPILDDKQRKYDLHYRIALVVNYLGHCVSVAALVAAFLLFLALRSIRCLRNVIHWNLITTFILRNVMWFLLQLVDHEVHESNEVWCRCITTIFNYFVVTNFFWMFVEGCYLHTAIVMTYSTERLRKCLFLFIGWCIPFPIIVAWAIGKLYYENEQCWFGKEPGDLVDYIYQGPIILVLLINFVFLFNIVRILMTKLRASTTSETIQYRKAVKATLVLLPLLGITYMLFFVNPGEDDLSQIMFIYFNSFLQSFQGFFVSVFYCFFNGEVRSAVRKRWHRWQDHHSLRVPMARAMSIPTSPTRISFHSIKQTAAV
T1 sequence (P24387 whole entry): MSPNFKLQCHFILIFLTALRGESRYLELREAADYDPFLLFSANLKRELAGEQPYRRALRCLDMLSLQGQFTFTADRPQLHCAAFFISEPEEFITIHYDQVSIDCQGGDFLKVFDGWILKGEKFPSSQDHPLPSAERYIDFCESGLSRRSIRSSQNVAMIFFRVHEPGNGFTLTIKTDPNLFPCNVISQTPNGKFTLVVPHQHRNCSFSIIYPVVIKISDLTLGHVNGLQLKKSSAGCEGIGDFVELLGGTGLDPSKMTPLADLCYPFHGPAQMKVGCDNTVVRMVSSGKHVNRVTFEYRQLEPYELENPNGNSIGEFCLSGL

[2] = CRF-BP/CRF-R2 complex antagonists, dose response, cell-based, uHTS hits, 384-well (AID 651639); assay type: functional, Homo sapiens; conditions: read-out: IC50_Mean
[3] = target: T1, Corticotropin-releasing factor receptor 2/Corticotropin-releasing factor-binding protein; assay: activators of CRF receptor 2 with binding protein – uHTS hits, confirmation (AID 602473); assay type: functional; conditions: read-out: EC50_Mean
[4] = target: 5-hydroxytryptamine receptor 2A (Mus musculus, UniProt P35363); assay type: functional, cell-based;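 also: CHO-K1 cells with tagged receptor and beta-arrestin; agonist potency measured as compound-induced activation of the receptor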
5-hydroxytryptamine receptor 2A, sequence (P35363 whole entry): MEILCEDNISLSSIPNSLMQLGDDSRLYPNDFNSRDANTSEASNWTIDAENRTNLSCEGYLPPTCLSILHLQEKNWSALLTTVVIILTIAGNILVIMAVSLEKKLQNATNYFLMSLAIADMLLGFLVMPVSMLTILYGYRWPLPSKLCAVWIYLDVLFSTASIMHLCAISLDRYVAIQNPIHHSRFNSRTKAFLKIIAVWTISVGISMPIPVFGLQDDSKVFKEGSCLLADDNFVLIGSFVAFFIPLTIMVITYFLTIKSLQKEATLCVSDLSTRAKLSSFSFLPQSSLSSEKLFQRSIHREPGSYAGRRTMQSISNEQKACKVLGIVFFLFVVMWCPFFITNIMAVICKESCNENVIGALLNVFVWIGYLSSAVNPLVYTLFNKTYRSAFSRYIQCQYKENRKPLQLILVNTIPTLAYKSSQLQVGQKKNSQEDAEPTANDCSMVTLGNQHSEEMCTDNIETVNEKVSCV

[5] = target: T2, Calpain-2 catalytic subunit (Sus scrofa, UniProt P43367); assay: pig calpain II inhibitor potency, dose response, biochemical, fluorogenic peptide substrate (AID 1420); assay type: functional
T2 sequence (P43367 whole entry): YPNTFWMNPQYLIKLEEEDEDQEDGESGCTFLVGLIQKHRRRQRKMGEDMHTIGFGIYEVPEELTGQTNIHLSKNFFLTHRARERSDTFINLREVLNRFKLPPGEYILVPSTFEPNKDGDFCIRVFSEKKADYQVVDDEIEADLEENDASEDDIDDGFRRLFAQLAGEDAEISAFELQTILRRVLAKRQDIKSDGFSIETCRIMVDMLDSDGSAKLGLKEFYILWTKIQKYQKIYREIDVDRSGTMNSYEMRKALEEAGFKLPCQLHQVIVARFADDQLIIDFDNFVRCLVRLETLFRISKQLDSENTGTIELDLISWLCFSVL

[6] = target: Mu-type opioid receptor (Homo sapiens, UniProt P35372); assay type: functional, cell-based;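 also: U2OS cells with beta-arrestin recruitment to OPRM1 by beta-gal complementation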
Mu-type opioid receptor, sequence (P35372 whole entry): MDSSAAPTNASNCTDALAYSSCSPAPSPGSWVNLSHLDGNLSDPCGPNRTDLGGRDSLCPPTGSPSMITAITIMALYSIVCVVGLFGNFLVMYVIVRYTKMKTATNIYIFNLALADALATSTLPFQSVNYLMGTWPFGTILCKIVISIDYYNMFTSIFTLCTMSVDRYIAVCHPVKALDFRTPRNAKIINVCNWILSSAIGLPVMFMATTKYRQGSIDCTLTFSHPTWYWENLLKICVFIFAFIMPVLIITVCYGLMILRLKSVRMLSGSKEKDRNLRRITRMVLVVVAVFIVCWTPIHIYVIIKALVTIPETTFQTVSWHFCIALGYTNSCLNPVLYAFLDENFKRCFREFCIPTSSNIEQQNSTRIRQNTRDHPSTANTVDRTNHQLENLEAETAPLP

[7] = target: Protein Wnt-3a (Mus musculus, UniProt P27467); assay: Wnt3a-driven reporter signaling inhibition, dose response, selectivity assay for Gli-SUFU antagonist project, Wnt-LIGHT cells, luminescence (AID 651570); assay type: functional; conditions: read-out: IC50_Mean;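 also: Wnt-LIGHT reporter cells stimulated with conditioned medium from Wnt3a-producing cells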
Protein Wnt-3a, sequence (P27467 whole entry): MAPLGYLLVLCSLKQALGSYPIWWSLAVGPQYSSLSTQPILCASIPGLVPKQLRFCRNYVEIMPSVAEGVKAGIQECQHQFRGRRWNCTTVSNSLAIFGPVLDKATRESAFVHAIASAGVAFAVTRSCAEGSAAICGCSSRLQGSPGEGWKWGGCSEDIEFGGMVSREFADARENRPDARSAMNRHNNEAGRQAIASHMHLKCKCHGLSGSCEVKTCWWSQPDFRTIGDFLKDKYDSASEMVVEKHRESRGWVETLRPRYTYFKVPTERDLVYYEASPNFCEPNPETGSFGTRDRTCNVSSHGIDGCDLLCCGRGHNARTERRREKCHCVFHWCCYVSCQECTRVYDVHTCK

[8] = system: INS1; assay: beta cell apoptosis inhibitors, cytokine rescue, dose response, luminescence, retest (AID 449756); assay type: functional, cell-based; conditions: Rattus norvegicus;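 also: cell death triggered by IL-1 beta plus TNF-alpha plus IFN-gamma mixture; protective hits raise ATP signal compared with cytokine alone wells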
[9] = system: Streptococcus sp. 'group A'; assay: growth inhibition of control SK(-) GAS strain, dose response, counter-screen for streptokinase expression inhibitor project, luminescence, kanamycin, BacTiterGlo, confirmation (AID 1900); assay type: functional, organism-based
[10] = target: Prothrombin (Bos taurus, UniProt P00735); assay: thrombin inhibition, dose response, biochemical, fluorescence polarization, uHTS hits (AID 602369); assay type: functional
[11] = target: 26S proteasome non-ATPase regulatory subunit 14 (Homo sapiens, UniProt O00487); assay: inhibition of proteasome subunit RPN11 – biochemical, fluorescence polarization, uHTS hits, confirmation (AID 602368); assay type: functional
26S proteasome non-ATPase regulatory subunit 14, sequence (O00487 whole entry): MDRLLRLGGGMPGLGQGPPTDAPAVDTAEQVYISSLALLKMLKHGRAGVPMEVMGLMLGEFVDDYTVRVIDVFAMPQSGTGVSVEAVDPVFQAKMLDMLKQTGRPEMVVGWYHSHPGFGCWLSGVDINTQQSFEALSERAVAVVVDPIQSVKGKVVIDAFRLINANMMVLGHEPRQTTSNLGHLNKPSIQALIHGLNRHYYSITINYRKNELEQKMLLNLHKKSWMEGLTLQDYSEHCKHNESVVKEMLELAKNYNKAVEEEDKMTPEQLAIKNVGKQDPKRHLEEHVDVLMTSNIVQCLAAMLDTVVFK

[12] = target: 72 kDa type IV collagenase (Homo sapiens, UniProt P08253); assay: Dose Response validation of uHTS RPN11 inhibitor hits using a MMP-2 Fluorescence assay.; assay type: functional
72 kDa type IV collagenase, sequence (P08253 whole entry): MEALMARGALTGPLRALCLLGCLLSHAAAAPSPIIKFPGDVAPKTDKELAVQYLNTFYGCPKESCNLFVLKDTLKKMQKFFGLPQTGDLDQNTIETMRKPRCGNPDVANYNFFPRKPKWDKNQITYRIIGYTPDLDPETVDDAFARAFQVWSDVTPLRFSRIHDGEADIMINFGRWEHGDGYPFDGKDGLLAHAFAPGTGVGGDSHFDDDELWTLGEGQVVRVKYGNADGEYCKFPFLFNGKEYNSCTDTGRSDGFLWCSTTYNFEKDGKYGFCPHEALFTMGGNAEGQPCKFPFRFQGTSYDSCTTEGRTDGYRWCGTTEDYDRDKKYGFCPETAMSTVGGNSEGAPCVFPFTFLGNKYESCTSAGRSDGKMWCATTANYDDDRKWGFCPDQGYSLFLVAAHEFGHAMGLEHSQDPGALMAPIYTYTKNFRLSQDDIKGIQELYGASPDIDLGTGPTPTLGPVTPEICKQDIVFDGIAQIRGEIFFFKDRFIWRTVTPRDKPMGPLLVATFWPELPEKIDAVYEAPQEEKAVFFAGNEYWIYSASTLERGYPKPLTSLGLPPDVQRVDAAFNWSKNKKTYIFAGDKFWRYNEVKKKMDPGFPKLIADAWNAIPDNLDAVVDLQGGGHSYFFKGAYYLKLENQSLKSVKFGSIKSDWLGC

[13] = system: Streptococcus; assay: Group A Streptococcus viability loss, dose response, counter-screen for streptokinase expression inhibitor project, luminescence, BacTiterGlo (AID 1915); assay type: functional, organism-based;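 also: potency for reduction of bacterial viability or growth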
[14] = target: Beta Lactamase (Pseudomonas aeruginosa, UniProt Q932Y6); assay: beta-lactamase reporter inhibitor potency, dose response, artefact control for TLR9-MyD88 binding inhibitor project, BLA reporter cells, FRET fluorescence (AID 588341); assay type: cell-based;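 also: cell based assay in CHO-K1 cells stably expressing beta-lactamase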
Beta Lactamase, sequence (Q932Y6 whole entry, the tested form may be a part): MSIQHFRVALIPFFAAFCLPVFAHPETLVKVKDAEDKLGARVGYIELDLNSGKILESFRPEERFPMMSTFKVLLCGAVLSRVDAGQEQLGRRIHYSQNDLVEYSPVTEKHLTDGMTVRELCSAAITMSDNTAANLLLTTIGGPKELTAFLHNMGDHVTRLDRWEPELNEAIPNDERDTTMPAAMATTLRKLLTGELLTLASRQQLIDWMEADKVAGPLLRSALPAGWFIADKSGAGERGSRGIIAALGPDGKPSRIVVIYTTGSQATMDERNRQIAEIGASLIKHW

[15] = system: CHO; assay: cytotoxicity in TLR9-MyD88 CHO cells, dose response, cytotoxicity control for TLR9-MyD88 binding inhibitor project, cell-based, luminescence (AID 588339); assay type: functional, hamster; conditions: Cricetulus griseus;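 also: CHO cells stably coexpressing TLR9 and MyD88 fusions from primary screen; compound exposure lasted 48 hours before viability readout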
[16] = system: H9c2; assay: cells; assay type: functional, cell-based; conditions: Rattus norvegicus, H9c2, Myocardium;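 also: confirmatory concentration-response retest of ultra-high-throughput screening hits for modulation of myocardial damage; cell death induced by hydrogen peroxide oxidative stress; compound pretreatment for 60 min then peroxide exposure for 2 h; potency is for protecting the cells against peroxide damage rather than for killing them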
[17] = target: T3, Methionyl-tRNA synthetase, putative (Trypanosoma brucei brucei, UniProt Q38C91); assay type: functional, Trypanosoma brucei brucei strain 927/4 GUTat10.1
T3 sequence (Q38C91 whole entry): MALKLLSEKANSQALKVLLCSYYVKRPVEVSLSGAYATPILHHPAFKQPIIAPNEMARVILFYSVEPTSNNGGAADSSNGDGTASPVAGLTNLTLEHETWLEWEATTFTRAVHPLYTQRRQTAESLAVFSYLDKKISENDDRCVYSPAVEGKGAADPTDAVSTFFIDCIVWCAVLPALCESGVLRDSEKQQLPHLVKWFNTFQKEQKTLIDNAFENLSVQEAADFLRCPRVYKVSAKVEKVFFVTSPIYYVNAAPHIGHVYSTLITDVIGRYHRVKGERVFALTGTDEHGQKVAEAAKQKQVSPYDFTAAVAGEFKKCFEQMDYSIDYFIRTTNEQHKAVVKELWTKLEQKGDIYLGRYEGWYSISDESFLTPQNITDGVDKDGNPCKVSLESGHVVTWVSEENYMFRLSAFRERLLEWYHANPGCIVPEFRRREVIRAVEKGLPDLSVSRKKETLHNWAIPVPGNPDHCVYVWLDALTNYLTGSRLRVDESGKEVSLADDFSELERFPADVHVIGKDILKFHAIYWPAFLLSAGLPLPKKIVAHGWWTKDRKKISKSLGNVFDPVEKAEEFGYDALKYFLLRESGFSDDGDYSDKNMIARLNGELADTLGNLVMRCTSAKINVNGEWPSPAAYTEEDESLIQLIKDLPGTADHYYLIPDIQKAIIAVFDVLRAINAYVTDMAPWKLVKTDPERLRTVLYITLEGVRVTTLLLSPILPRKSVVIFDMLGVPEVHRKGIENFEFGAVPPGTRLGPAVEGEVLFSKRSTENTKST

[18] = Counterscreen for inhibitors of Trypanosoma brucei methionyl tRNA synthetase (MetRS): Luminescence-based cell-based high throughput dose response assay to identify compounds that are cytotoxic to Jurkat human T lymphocyte cells.; assay type: functional
[19] = target: T3, Methionyl-tRNA synthetase, putative; assay type: functional, Trypanosoma brucei brucei strain 927/4 GUTat10.1; remark: listed apart in the source
[20] = inhibitors of intracellular T. cruzi replication, confirmation, NIH3T3 host cells, beta-gal luminescence (AID 2044); assay type: functional, cell-based;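 also: intracellular parasites grown in NIH/3T3 mouse fibroblasts as host cells; luminescent beta-galactosidase reporter signal from transgenic T. cruzi replicating inside host cells; inhibitors lower the luminescence signal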
[21] = cytotoxicity toward NIH3T3 fibroblasts, dose response, counter-screen, cell-based, ATP luminescence, mouse fibroblasts (AID 2010); assay type: functional;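 also: cells exposed to compound for about 90 hours before reading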

In the case of Cc1noc(C)c1CSCc1ccc(Cl)cc1, the IC50 [1] is reported as 35.6 µM (active), the IC50 [2] is reported as > 20 µM (inactive) and the EC50 [3] is reported as > 53 µM (inactive).
With O=[N+]([O-])c1ccc(OCC(O)CN2CCN(c3ccccc3F)CC2)cc1 (stereo not given) the EC50 [4] was 76.1 µM (inactive), the IC50 [5] was > 50 µM (not active) and the EC50 [6] was 92.5 µM (inactive).
With Cc1sc2ncnc(NCc3cccs3)c2c1C the IC50 [7] was 1.81 µM (active) and the AC50 [8] was 4.79 µM (active).
With CO/N=C(/C(=O)N[C@@H]1C(=O)N2C(C(=O)O)=CCS[C@H]12)c1cnc(N)s1 the EC50 [9] was < 0.06 µM (active), the IC50 [10] was 54.1 µM (active) and the IC50 [11] was 1.33 µM (active). For the same compound, the IC50 [12] was 0.122 µM (active) and the EC50 [13] was < 0.06 µM (active).
With COc1cc2oc3cc(C#Cc4ccc(N)cc4)ccc3c(=O)c2cc1OC the IC50 [14] was 3.6 µM (active), the IC50 [15] was > 49.7 µM (inactive) and the IC50 [16] was > 79 µM (inactive).
In the case of O=C(Cc1ccc(Br)cc1)Nc1cccc(S(=O)(=O)N2CCOCC2)c1, the IC50 [17] is reported as 7 µM (active), the IC50 [18] is reported as 82.3 µM (inactive) and the IC50 [19] is reported as 3.47 µM (active).
With O=C(Nc1ccc(C(=O)O)cc1)/C(=C\C=C\c1ccccc1)NC(=O)c1ccc(Br)cc1 the IC50 [17] was 11.5 µM (inactive), the IC50 [18] was 83.3 µM (inactive) and the IC50 [19] was 29.6 µM (inactive).
With CCOc1ccc(-n2c(-c3ccc(Cl)cc3)c[n+]3c2SCC3)cc1 the IC50 [7] was 1.33 µM (active), the EC50 [20] was 0.86 µM (active) and the EC50 [21] was 5.18 µM (active).
